Legend:
[1] = system: JHUEM1; test: 4 day proliferation assay (CellTiter-Glo); conditions: Homo sapiens, 96 h, read-out: 4 day assay GI50
[2] = system: OC314; test: CFA 10-14 day clonogenic assay; assay type: cell-based; conditions: Homo sapiens, OC-314
[3] = system: SNGM; test: 4 day proliferation assay (CellTiter-Glo); conditions: Homo sapiens, 96 h, read-out: 4 day assay GI50
[4] = system: 2313287; test: 4 day proliferation assay (CellTiter-Glo); conditions: Homo sapiens, 96 h, read-out: 4 day assay GI50
[5] = target: COX1 (Homo sapiens, UniProt P23219); test: Safety pharmacology panel
[6] = In vitro unbound fraction; assay type: in vitro ADME

Sequence of COX1 (P23219 24-599): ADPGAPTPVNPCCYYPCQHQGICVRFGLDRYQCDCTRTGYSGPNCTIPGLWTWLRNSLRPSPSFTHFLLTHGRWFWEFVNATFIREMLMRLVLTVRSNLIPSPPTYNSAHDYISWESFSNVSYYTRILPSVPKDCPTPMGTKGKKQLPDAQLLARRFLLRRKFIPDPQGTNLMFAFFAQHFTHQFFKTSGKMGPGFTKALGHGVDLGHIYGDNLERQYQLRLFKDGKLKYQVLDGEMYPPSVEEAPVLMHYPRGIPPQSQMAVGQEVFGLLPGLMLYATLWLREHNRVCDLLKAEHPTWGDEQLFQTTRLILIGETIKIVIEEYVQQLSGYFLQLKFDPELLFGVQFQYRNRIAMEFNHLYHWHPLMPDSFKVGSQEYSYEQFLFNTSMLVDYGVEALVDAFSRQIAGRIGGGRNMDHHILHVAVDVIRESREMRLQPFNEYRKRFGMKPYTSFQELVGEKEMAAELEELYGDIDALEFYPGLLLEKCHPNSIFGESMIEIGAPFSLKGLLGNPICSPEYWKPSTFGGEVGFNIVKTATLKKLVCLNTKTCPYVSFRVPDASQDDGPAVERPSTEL

CCc1c(N2CCN(C(=O)c3ncnc(C)c3O)CC2)c(=O)n2nc(C3=CCOCC3)nc2n1CC(=O)Nc1ccc(C(F)(F)F)cc1Cl [HRO761]
GI50 [1]: 0.946 µM | GI50 [2]: 4.63 µM | GI50 [3]: ≥ 10 µM | GI50 [4]: ≥ 10 µM | Safety pharmacology panel: COX1 [5]: 9 μM | fraction unbound [6]: 0.37

From PMC11078746 (Nature, 2024)
